# Laboratory results reported in US6821983B2, “5-(9-acridinylamino)-toluidine compounds” (Academia Sinica, priority 2003, dated 2004).
# Where a name gives a salt, the structure may show the parent alone.
# Columns and labels:
# [1] = tested on: human tumor cell lines; assay: Inhibition of human tumor cell growth in culture (XTT-tetrazolium cytotoxicity assay, 72 h); type: cell-based; conditions: five human tumor cell lines, 72 h incubation; for IC50 values compared with tested known 9-anilinoacridine antitumor compounds: for at least one cell line
# Method: (§1) Cytotoxicity Assays. The effects of the compounds on cell growth were determined in all human tumor cells (i.e. colon HT-29, nasopharyngeal carcinoma HONE-1 and BM-1, hepatoma Hepa-G2, breast carcinoma MX-1, gastric carcinoma TSGH, brain tumor DBTRG, oral carcinoma KB, breast carcinoma MCF-7 and MX-1, and T-cell acute lymphocytic leukemia CCRF-CEM), in a 72 h incubation, by XTT-tetrazolium assay, as described by Scudiero et al. (Cancer Res. 1988, 48, 4827-4833). After the addition of phenazine methosulfate-XTT solution at 37° C. for 6 h, absorbance at 450 and 630 nm was detected on a microplate reader (EL 340; Bio-Tek Instruments Inc., Winooski, Vt.). Six to seven concentrations of each compound were used. The IC50 and dose-effect relationships of the compounds for antitumor activity were calculated by a median-effect plot (Chou et al. Adv. Enzyme Regul. 1984, 22, 27-55) using a computer program on an IBM-PC workstation (Chou et al. Dose-Effect Analysis with Microcomputers: Quantitation of ED50, LD50, Synergism, Antagonism, Low-Dose Risk, Receptor-Ligands Binding and Enzyme Kinetics; Biosoft: Cambridge, U.K., 1987).
# [2] = tested on: human breast tumor MX-1 xenograft; assay: Chemotherapeutic efficacy in nude mice bearing human breast tumor MX-1 xenograft; type: in vivo; conditions: i.v., dosages of 10 mg/Kg or higher
# Method: In vivo assay. Athymic nude mice bearing the nu/nu gene were used for human breast tumor MX-1 xenograft. Outbred Swiss-background mice were obtained from Charies River Breeding Laboratories. Male mice 8 weeks old or older weighing 22 g or more were used for most experiments. Drug was administrated via the tail vein by i.v. injection. Tumor volumes were assessed by measuring length x width x height (or width) by using caliper. Vehicle used was 20 μl DMSO in 180 μl saline. All animal studies were conducted in accordance with the guidelines of the National Institutes of Health Guide for the Care and Use of Animals and the protocol approved by the Memorial Sloan-Kettering Cancer Center's Institutional Animal Care and Use Committee.
# [3] = tested on: CCRF-CEM human lymphoblastic leukemic cells and its drug-resistant sublines; assay: Growth inhibition of CCRF-CEM cells and drug-resistant sublines (XTT-tetrazolium assay, 72 h); type: cell-based; conditions: for IC50 values compared with tested known 9-anilinoacridine compounds: CCRF-CEM and drug-resistant sublines, 72 h, as the trihydrochloride salt or free amine compounds; for cross-resistance with vinblastine or taxol: CCRF-CEM drug-resistant sublines
# Method: as §1, with “in CCRF-CEM” for “in all”, “human lymphoblastic leukemic” for “human tumor”, “cells” for “cells (i.e. colon HT-29, nasopharyngeal carcinoma HONE-1”, “and its drug-resistant sublines” for “and BM-1, hepatoma Hepa-G2, breast carcinoma MX-1, gastric carcinoma TSGH, brain tumor DBTRG, oral carcinoma KB, breast carcinoma MCF-7 and MX-1, and T-cell acute lymphocytic leukemia CCRF-CEM),”
compound,measurement,setting,value
"Cc1ccc(Nc2c3cccc(C)c3nc3c(C(=O)NCCN(C)C)cccc23)cc1N (as salt: HCl) [Compound 3, 5-[9-(4-dimethylaminoethylcarboxamido-5-methyl)acridinylamino)-p-toluidine hydrochloride]",melting point,,245 to 246 °C
"Cc1cc(N)cc(Nc2c3ccccc3nc3ccccc23)c1 (as salt: HCl) [Compound 10, 5-(9-acridinylamino)-m-toluidine]",melting point,,> 280 °C (dec.)
"Cc1cc(N)cc(Nc2c3cccc(C)c3nc3c(C(=O)NCCN(C)C)cccc23)c1 [Compound 1, 5-[9-(4-dimethylaminoethylcarboxamido-5-methyl)acridinylamino]-m-toluidine hydrochloride]",IC50 values compared with tested known 9-anilinoacridine antitumor compounds,[1],lower than those of tested known 9-anilinoacridine antitumor compounds
same,reducing tumor volume,[2],about 80%
same,toxicity to the host,[2],very low toxicity
same,IC50 values compared with tested known 9-anilinoacridine compounds,[3],lower than tested known 9-anilinoacridine compounds
same,cross-resistance with vinblastine or taxol,[3],not cross-resistant
"Cc1ccc(N)cc1Nc1c2cccc(C)c2nc2c(C(=O)NCCN(C)C)cccc12 [Compound 2, 3-[9-(4-dimethylaminoethylcarboxamido-5-methyl)acridinylamino)-p-toluidine hydrochloride]",largest difference in IC50 versus one of the tested known compounds,[1],18 fold
same,IC50 values compared with tested known 9-anilinoacridine antitumor compounds,[1],lower than those of tested known 9-anilinoacridine antitumor compounds
same,reducing tumor volume,[2],about 80%
same,toxicity to the host,[2],very low toxicity
same,IC50 values compared with tested known 9-anilinoacridine compounds,[3],lower than tested known 9-anilinoacridine compounds
same,cross-resistance with vinblastine or taxol,[3],not cross-resistant
"Cc1ccc(Nc2c3cccc(C)c3nc3c(C(=O)NCCN(C)C)cccc23)cc1N [Compound 3, 5-[9-(4-dimethylaminoethylcarboxamido-5-methyl)acridinylamino)-p-toluidine hydrochloride]",IC50 values compared with tested known 9-anilinoacridine antitumor compounds,[1],lower than those of tested known 9-anilinoacridine antitumor compounds
CCOC(=O)Nc1cc(Nc2c3cccc(C)c3nc3c(C(=O)NCCN(C)C)cccc23)ccc1C [Compound 6],melting point,,131 to 132 °C
same,IC50 values compared with tested known 9-anilinoacridine antitumor compounds,[1],lower than those of tested known 9-anilinoacridine antitumor compounds
{3-[4-(2-dimethylamino ethylcarbamoyl)-5-methyl-acridin-9-ylamino]-2-methyl-phenyl}-carbamic acid ethyl ester [Compound 5],IC50 values compared with tested known 9-anilinoacridine antitumor compounds,[1],lower than those of tested known 9-anilinoacridine antitumor compounds
